Test results reported in US10370328B2, “Oxindole compounds and pharmaceutical compositions thereof” (MUSC FOUNDATION FOR RESEARCH DEVELOPMENT, priority 2015, dated 2019).

Experiments:
[1] = system: rd10 mouse; assay: Rd10 mouse model of RP, eye drops, rows of photoreceptors; type: in vivo; details: 100 μM eye drops once daily from postnatal day 14, assessed at postnatal day 25; P < 0.005; vehicle 2.3 ± 0.23
From the text: To test the potential therapeutic efficacy, eye drops were formulated in 0.1% Myrj in 0.9% saline, applied once daily starting at the day of eye opening (postnatal day 14), and their effect assessed on the degeneration of photoreceptor cells morphologically at postnatal day 25.

[2] = system: rd1 mouse; assay: Rd1 mouse model of RP (retina organ culture), rows of photoreceptors; type: cell-based; details: 10 nM; equivalent of postnatal day 21; P = 0.04; rd1 vehicle 1.81 ± 0.09
Description: For the calcium-overload in vitro, the rd1 mouse was utilized (e.g., Farber et al., 1995). […] To test the potential therapeutic efficacy, compounds were added to the culture media starting the day after the start of the culture (equivalent to postnatal day 11) and replaced every 48 hours. Effects were assessed on the degeneration of photoreceptor cells morphologically at the equivalent of postnatal day 21.

[3] = system: Balb/c mice; assay: Light model assay (light damage), eye drops, rows of photoreceptors; type: in vivo, mouse; details: 100 μM eye drops once daily; continuous light for 7 days; maximum effect
From the text: The light model assay is generally accepted as a model of age related macular degeneration (AMD). […] In particular, oxidative damage has been detected by immunohistochemistry, detecting the presence of oxidized and tyrosine-phosphorylated proteins as well as the upregulation of endogenous antioxidants such as thioredoxin and glutathione peroxidase.
The light model assay was used to further test the therapeutic potential of the compounds of the invention. Photoreceptors from albino animals are very sensitive to constant light, lacking the RPE pigment to protect them. […] To test the potential therapeutic efficacy, eye drops were formulated in 0.1% Myrj in 0.9% saline, applied once daily throughout the period of light exposure, and their effect assessed on the light-induced degeneration of photoreceptor cells morphologically and electrophysiologically, 10 days after the onset of the CL exposure.

[4] = system: 661W or C6 cells; assay: Metabolic Protection Assay (MTT), protection from calcium-ionophore A23187; type: cell-based; details: 1 μM ionophore, 24 h
Description: The compound 3-(4,5-Dimethylthiazol-2-yl)-2,5-diphenyltetrazolium bromide (MTT) is a tetrazolium ion that is reduced to a blue formazan dye via several families of NAD(P)H-dependent oxidoreductases. Formation of the formazan dye from MTT or other related tetrazolium dyes are commonly used as a viability assay even though, in fact, the assay is a metabolic capacity assay.
In this assay, 661W or C6 cells were maintained in DMEM supplemented with 10% serum. 100 of 70,000 cells/mL cells were seeded into each well of 96 well plates using DMEM supplemented with 5% serum. Cells were then allowed to grow to confluency for 48 hours. Representative compounds of the invention were added in 2 μL media and calcium-ionophore A23187 was then added in 1 μL for a final concentration of 1 μM and after 24 h, 20 uL of […] MTT were added to each well and the cells were incubated for another 4 h after which 100 μL of 1% SDS in 0.01 M aqueous HCl were added to each well and the plates were incubated overnight. Absorbance was measured at […] (background correction). The 1 μM ionophore A23187 caused about 50% loss in MTT signal at 24 h. Protection was calculated as the increase in absorbance of treatment groups normalized to the vehicle control.

Compound | rd10 protection (# of rows) [1] | rd1 protection (# of rows) [2] | LD Protection (# of rows) [3] | loss in MTT signal [4]
CCN1C(=O)C(Cc2cccc(OC)c2O)(OC(=O)N(C)C)c2cc(Cl)ccc21 (stereo not drawn) [Example 10, 5-chloro-1-ethyl-3-(2-hydroxy-3-methoxybenzyl)-2-oxoindolin-3-yl dimethylcarbamate] | (100 μM) 2.8 ± 0.48 (P < 0.005) # of rows | (10 nM) 2.51 ± 0.25 (P = 0.04) # of rows | (100 μM) 5.8 ± 0.34 (P < 0.001) # of rows | –
CCN1C(=O)C(Cc2cccc(OC)c2OC(=O)NCCOCCO)(OC(=O)c2ccccc2)c2cc(Cl)ccc21 (stereo not drawn) [Example 12, 5-chloro-1-ethyl-3-(2-(((2-(2-hydroxyethoxy)ethyl)carbamoyl)oxy)-3-methoxybenzyl)-2-oxoindolin-3-yl benzoate] | – | – | (100 μM) 4.87 ± 0.22 (P < 0.01) # of rows | –
CCN1C(=O)C(O)(Cc2cccc3c2OCO3)c2cc(C)ccc21 (stereo not drawn) [Example 17, 3-(benzo[d][1,3]dioxol-4-ylmethyl)-1-ethyl-3-hydroxy-5-methylindolin-2-one] | – | – | (100 μM) 6.48 ± 0.13 (P < 0.001) # of rows | –
CNc1ccc2oc(C[C@H]3O[C@@]4(CC[C@H]3C)O[C@H]([C@H](C)C(=O)c3ccc[nH]3)[C@H](C)C[C@H]4C)nc2c1C(=O)O [Example A23187] | – | – | – | about 50%
